Test [1] concerns the target human vasopressin V2 receptor (Homo sapiens, UniProt P30518). In words: Receptor binding study, [3H]AVP displacement on CHO cell membranes, human V2. The conditions noted are these: [3H]AVP displacement, CHO cell membrane, 25° C., one hour; read-out: Human V2 Ki. As to the method:
Preparation of Chinese hamster ovary (Cho) cell which expresses human vasopressin receptor subtype and production of membrane sample of the cell was conducted according to the method of Tahara et al. (Br. J. Pharmacol., 125, 1463-1470, 1998).
(§1) (ii) Receptor Binding Study
In saturation binding experiment, the membrane sample and [^3H]AVP of several concentrations (0.125 nM to 4.0 nM) were mixed and incubated in microplate wells. In displacement experiment, [^3H]AVP of constant concentrations (0.5 nM to 1.0 nM) and the membrane sample were mixed with Compound A of several concentrations, and incubation was performed. Assay was performed using 50 mM of Tris-HCl (pH=7.4) (total amount: 250 μL) (buffer composition: containing […] of MgCl2 and 0.1% BSA), and incubation was performed at room temperature (25° C.) for one hour. After incubation, suck filtration was immediately performed and reaction was completed when the membrane sample was collected on a glass fiber filter fitted with the microplate. After the filter was washed with an ice-cold Tris-HCl buffer (50 mM Tris-HCl, 10 mM MgCl2, pH 7.4), radioactivity measurement was performed. Nonspecific binding was determined using nonradioactive-labeled AVP (1 μM).

Test [2] addresses human vasopressin V1a receptor (Homo sapiens, UniProt P37288). In words: Receptor binding study, [3H]AVP displacement on CHO cell membranes, human V1a. Conditions: [3H]AVP displacement, CHO cell membrane, 25° C., one hour; read-out: Human V1a Ki. On the procedure: as §1
Assay was performed using 50 mM of Tris-HCl (pH=7.4) (total amount: 250 μL) (buffer composition: containing […] of MgCl2 and 0.1% BSA), and incubation was performed at room temperature (25° C.) for one hour. After incubation, suck filtration was immediately performed and reaction was completed when the membrane sample was collected on a glass fiber filter fitted with the microplate. After the filter was washed with an ice-cold Tris-HCl buffer (50 mM Tris-HCl, 10 mM MgCl2, pH 7.4), radioactivity measurement was performed. Nonspecific binding was determined using nonradioactive-labeled AVP (1 μM).

pKi: −log10 of the molar value.

human vasopressin V2 receptor, sequence (P30518 whole entry): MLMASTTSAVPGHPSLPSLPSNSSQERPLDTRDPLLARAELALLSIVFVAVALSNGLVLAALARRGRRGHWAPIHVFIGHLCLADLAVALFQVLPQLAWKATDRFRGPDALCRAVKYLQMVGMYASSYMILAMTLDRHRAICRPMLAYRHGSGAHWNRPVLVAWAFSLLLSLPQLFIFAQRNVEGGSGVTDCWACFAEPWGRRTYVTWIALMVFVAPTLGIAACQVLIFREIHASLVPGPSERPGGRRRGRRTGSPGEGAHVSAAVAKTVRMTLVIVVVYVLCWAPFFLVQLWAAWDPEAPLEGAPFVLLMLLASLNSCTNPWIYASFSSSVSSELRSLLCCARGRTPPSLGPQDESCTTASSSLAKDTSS
human vasopressin V1a receptor, sequence (P37288 whole entry): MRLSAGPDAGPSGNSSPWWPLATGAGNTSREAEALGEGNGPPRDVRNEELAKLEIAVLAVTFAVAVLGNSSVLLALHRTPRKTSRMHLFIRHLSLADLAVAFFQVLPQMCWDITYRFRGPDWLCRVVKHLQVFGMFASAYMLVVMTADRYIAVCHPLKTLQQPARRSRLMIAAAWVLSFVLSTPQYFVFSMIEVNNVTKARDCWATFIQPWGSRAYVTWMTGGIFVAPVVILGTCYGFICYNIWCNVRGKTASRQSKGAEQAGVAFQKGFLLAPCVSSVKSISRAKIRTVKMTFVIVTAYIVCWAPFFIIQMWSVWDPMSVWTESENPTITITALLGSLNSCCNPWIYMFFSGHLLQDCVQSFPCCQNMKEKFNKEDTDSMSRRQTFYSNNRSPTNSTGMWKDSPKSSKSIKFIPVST

Consider `C[C@H]1CCN(C(=O)c2ccc(-c3ccc4[nH]ccc4c3)c(NC(=O)N3CCOCC3)c2)c2ccccc2N1` [Example 89, N-[2-(1H-indol-5-yl)-5-[[(4S)-4-methyl-2,3,4,5-tetrahydro-1H-1,5-benzodiazepin-1-yl]carbonyl]phenyl]-4-morpholine carboxamide], for which the negative logarithm of the Ki (pKi) (usually the negative decadic logarithm of the Ki, by convention in mol/L) in test [1] is 7.72; in test [2] it was 9.54.
Take `C[C@H]1CCN(C(=O)c2ccc(-c3ccc4[nH]ccc4c3)c(OCCCCN3CCOCC3)c2)c2ccccc2N1` [Example 67, (4S)-1-[4-(1H-indol-5-yl)-3-[4-(4-morpholinyl)butoxy]benzoyl]-4-methyl-2,3,4,5-tetrahydro-1H-1,5-benzodiazepine]: the pKi in test [1] was 8.06; in test [2], 9.72.
The matching figures for `CCCNCCCOc1cc(C(=O)N2CC[C@H](C)Nc3ccccc32)ccc1-c1ccc(NCC)cc1` [Example 165, N-ethyl-4′-[[(4S)-4-methyl-2,3,4,5-tetrahydro-1H-1,5-benzodiazepin-1-yl]carbonyl]-2′-[3-(propylamino)propoxy][1,1′-biphenyl]-4-amine]: 7.04 and 9.55.
The matching figures for `C[C@H]1CCN(C(=O)c2ccc(-c3ccc4[nH]ccc4c3)c(OCCN3CCN(C)CC3)c2)c2ccccc2N1` [Example 110, (4S)-1-[4-(1H-indol-5-yl)-3-[2-(4-methyl-1-piperazinyl)ethoxy]benzoyl]-4-methyl-2,3,4,5-tetrahydro-1H-1,5-benzodiazepine]: 8.19 and 9.89.
For `CCCCCN(C)CCCOc1cc(C(=O)N2CC[C@H](C)Nc3ccccc32)ccc1-c1ccc2[nH]ccc2c1` [Example 108, N-[3-[2-(1H-indol-5-yl)-5-[[(4S)-4-methyl-2,3,4,5-tetrahydro-1H-1,5-benzodiazepin-1-yl]carbonyl]phenoxy]propyl]-N-methyl-1-pentaneamine] the same measures were 7.68 and 9.38.
`C[C@H]1CCN(C(=O)c2ccc(-c3ccc4[nH]ccc4c3)c(OCCCN)c2)c2ccccc2N1` [Example 38, 3-[2-(1H-indol-5-yl)-5-[[(4S)-4-methyl-2,3,4,5-tetrahydro-1H-1,5-benzodiazepin-1-yl]carbonyl]phenoxy]propylamine]: the pKi is 7.96 in test [1] and 10.07 in test [2].
For `C[C@H]1CCN(C(=O)c2ccc(-c3ccc4[nH]ccc4c3)c(OCCCN3CCC[C@H]3C(N)=O)c2)c2ccccc2N1` [Example 88, (2S)-1-[3[2-(1H-indol-5-yl)-5-[[(4S)-4-methyl-2,3,4,5-tetrahydro-1H-1,5-benzodiazepin-1-yl]carbonyl]phenoxy]propyl]-2-pyrrolidine carboxamide] the same measures were 8.52 and 9.52.
For `CCCN(CC)CCCOc1cc(C(=O)N2CC[C@H](C)Nc3ccccc32)ccc1-c1ccc2[nH]ccc2c1` [Example 125, N-ethyl-3-[2-(1H-indol-5-yl)-5-[[(4S)-4-methyl-2,3,4,5-tetrahydro-1H-1,5-benzodiazepin-1-yl]carbonyl]phenoxy]-N-propyl-1-propaneamine], the pKi is 7.82 in test [1] and 9.74 in test [2].
For `C[C@H]1CCN(C(=O)c2ccc(-c3ccc4[nH]ccc4c3)c(OCCCN3C(=O)CNC3=O)c2)c2ccccc2N1` [Example 97, 3-[3-[2-(1H-indol-5-yl)-5-[[(4S)-4-methyl-2,3,4,5-tetrahydro-1H-1,5-benzodiazepin-1-yl]carbonyl]phenoxy]propyl]-2,4-imidazolidinedion], the pKi was 9.41 in test [1] and 9.89 in test [2].
The matching figures for `C[C@H]1CCN(C(=O)c2ccc(-c3ccc4[nH]ccc4c3)c(OCCCN3CCC(N(C)C)CC3)c2)c2ccccc2N1` [Example 123]: 8.00 and 9.42.
The matching figures for `CCCN(C)CCCOc1cc(C(=O)N2CC[C@H](C)Nc3ccccc32)ccc1-c1ccc(OC(F)F)cc1` [Example 157, N-(3-[[4′-(difluoromethoxy)-4-[[(4S)-4-methyl-2,3,4,5-tetrahydro-1H-1,5-benzodiazepin-1-yl]carbonyl][1,1′-biphenyl]-2-yl]oxy]propyl]-N-methyl-N-propylamine]: 7.55 and 9.55.
The matching figures for `CCN(C)CCCOc1cc(C(=O)N2CC[C@H](C)Nc3ccccc32)ccc1-c1ccc2[nH]ccc2c1` [Example 118, N-ethyl-3-[2-(1H-indol-5-yl)-5-[[(4S)-4-methyl-2,3,4,5-tetrahydro-1H-1,5-benzodiazepin-1-yl]carbonyl]phenoxy]-N-methyl-1-propaneamine]: 8.02 and 9.82.
On to `CCN(CC)CCCOc1cc(C(=O)N2CC[C@H](C)Nc3ccccc32)ccc1-c1ccc2[nH]ccc2c1` [Example 116, N,N-diethyl-3-[2-(1H-indol-5-yl)-5-[[(4S)-4-methyl-2,3,4,5-tetrahydro-1H-1,5-benzodiazepin-1-yl]carbonyl]phenoxy]-1-propaneamine], for which the negative logarithm of the Ki (pKi) in test [1] was 7.96; in test [2] it was 9.80.
For `CCCN(C)CCCOc1cc(C(=O)N2CC[C@H](C)Nc3ccccc32)ccc1-c1ccc(NCC)cc1` [Example 129, N-ethyl-2′-[3-[methyl(propyl)amino]propoxy]-4′-[[(4S)-4-methyl-2,3,4,5-tetrahydro-1H-1,5-benzodiazepin-1-yl]carbonyl][1,1′-biphenyl]-4-amine] the same measures were 7.06 and 9.40.
The matching figures for `COCCN(CCCOc1cc(C(=O)N2CC[C@H](C)Nc3ccccc32)ccc1-c1ccc2[nH]ccc2c1)CCOC` [Example 84]: 8.19 and 10.00.
Regarding `Cc1ccc2c(c1)NC(C)CCN2C(=O)c1ccc(-c2ccc3[nH]ccc3c2)c(OCCN2CCOCC2)c1` (stereo not shown) [Example 104, 5-[(4,7-dimethyl-2,3,4,5-tetrahydro-1H-1,5-benzodiazepin-1-yl]carbonyl]-2-(1H-indol-5-yl)phenyl 2-(4-morpholinyl)ethyl ether], the pKi is 8.46 in test [1] and 9.46 in test [2].
The matching figures for `C[C@@H]1CN(CCCOc2cc(C(=O)N3CC[C@H](C)Nc4ccccc43)ccc2-c2ccc3[nH]ccc3c2)C[C@H](C)O1` [Example 115, (4S)-1-[3-[3-[(2R,6S)-2,6-dimethylmorpholinyl]propoxy]-4-(1H-indol-5-yl)benzoyl]-4-methyl-2,3,4,5-tetrahydro-1H-1,5-benzodiazepine]: 8.31 and 9.57.
For `CCN(C)CCCCOc1cc(C(=O)N2CC[C@H](C)Nc3ccccc32)ccc1-c1ccc2[nH]ccc2c1` [Example 172, N-ethyl-4-[2-(1H-indol-5-yl)-5-[[(4S)-4-methyl-2,3,4,5-tetrahydro-1H-1,5-benzodiazepin-1-yl]carbonyl]phenoxy]-N-methyl-1-butaneamine] the same measures were 8.15 and 10.03.
On to `C[C@H]1CCN(C(=O)c2ccc(-c3ccc4[nH]ccc4c3)c(OCCCN(C)CCN(C)C)c2)c2ccccc2N1` [Example 112, N1-[3-[2-(1H-indol-5-yl)-5-[[(4S)-4-methyl-2,3,4,5-tetrahydro-1H-1,5-benzodiazepin-1-yl)carbonyl]phenoxy]propyl]-N1,N2,N2-trimethyl-1,2-ethaneamine], for which the negative logarithm of the Ki (pKi) in test [1] was 7.64; in test [2], 9.38.
The matching figures for `CCCN(C)CCCOC(=O)c1cc(C(=O)N2CC[C@H](C)Nc3ccccc32)ccc1-c1ccc2[nH]ccc2c1` [Example 132, 3-[methyl(propyl)amino]propyl 2-(1H-indol-5-yl)-5-[[(4S)-4-methyl-2,3,4,5-tetrahydro-1H-1,5-benzodiazepin-1-yl]carbonyl]benzoate]: 6.76 and 9.60.
As for `CCCN(C)CCCOc1cc(C(=O)N2CC[C@H](C)Nc3ccccc32)ccc1-c1ccc(NCC)c(F)c1` [Example 154, N-ethyl-3-fluoro-2′-[3-[methyl(propyl)amino]propoxy]-4′-[[(4S)-4-methyl-2,3-4,5-tetrahydro-1H-1,5-benzodiazepin-1-yl]carbonyl][1,1′-biphenyl]-4-amine], the pKi was 7.28 in test [1] and 9.40 in test [2].
The matching figures for `CCCN1CCN(CCCOc2cc(C(=O)N3CC[C@H](C)Nc4ccccc43)ccc2-c2ccc3[nH]ccc3c2)CC1` [Example 113, (4S)-1-[4-(1H-indol-5-yl)-3-[3-(4-propyl-1-piperazinyl)propoxy]benzoyl]-4-methyl-2,3,4,5-tetrahydro-1H-1,5-benzodiazepine]: 8.30 and 9.59.
For `CCCN(C)CCCCOc1cc(C(=O)N2CC[C@H](C)Nc3ccccc32)ccc1-c1ccc(NCC)cc1` [Example 156] the same measures were 7.28 and 9.72.
